Assay [1] deals with T1, holo PGHS (cyclooxygenase activity) (Ovis aries, UniProt P05979).
T1 sequence (P05979 25-600): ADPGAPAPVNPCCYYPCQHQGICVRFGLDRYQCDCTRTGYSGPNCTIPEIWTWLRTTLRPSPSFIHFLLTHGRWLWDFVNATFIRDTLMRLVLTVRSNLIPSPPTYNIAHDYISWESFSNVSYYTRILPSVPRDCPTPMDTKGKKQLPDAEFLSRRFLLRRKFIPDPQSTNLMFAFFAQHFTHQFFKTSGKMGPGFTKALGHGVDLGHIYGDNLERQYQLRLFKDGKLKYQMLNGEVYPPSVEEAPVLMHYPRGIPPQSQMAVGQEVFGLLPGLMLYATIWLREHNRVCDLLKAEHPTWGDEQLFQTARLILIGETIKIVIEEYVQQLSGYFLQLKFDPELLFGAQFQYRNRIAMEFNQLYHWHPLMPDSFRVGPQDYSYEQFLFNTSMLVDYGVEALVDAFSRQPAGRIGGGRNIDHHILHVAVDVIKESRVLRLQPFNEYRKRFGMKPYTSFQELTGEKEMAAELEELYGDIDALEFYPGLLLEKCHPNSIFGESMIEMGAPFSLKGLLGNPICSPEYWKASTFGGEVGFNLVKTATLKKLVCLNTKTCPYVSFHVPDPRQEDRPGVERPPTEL
The experiment in a line: Time dependent inactivation of cyclooxygenase activity. Format: biochemical, ram (seminal vesicles). Conditions: enzyme 0.25 μM; for Oxygen Consumption, T = 0: control 221; for Oxygen Consumption, T = 30: T = 30 (min), control 210; for Oxygen Consumption, T = 60: control 211. As for the experimental part: (§1) PGHS was purified from ram seminal vesicles.
(§2) Oxygen consumption was measured at 37° C. with a Gilson model 5/6 oxygraph equipped with a clark electrode and a thermostatted cuvette. Enzyme aliquots were added to 100 mM Tris-HCl at pH 8 containing 500 μM phenol and […] hematin. Oxygen uptake was initiated by the addition of 100 mM sodium arachidonate, and the initial reaction velocity was determined from the linear portion of the oxygen uptake curve.
A reaction mixture containing a 100 fold excess of the inhibitor(versus the enzyme concentration) (from a 10 mM stock in DMSO) and holo PGHS (5.3 mg/mL) (reconstituted with one equivalent of hematin) was incubated in a eppendorf tube at room temperature. Aliquots of the incubation mixture, at time intervals of t=0, 30 and 60 min were added to the oxygraph cell already containing 1.25 mL Tris HCL, 100 mM, pH 8, at 37° C., 500 μM phenol and 25 μL of 50 μM hematin. The cyclooxygenase reaction was initiated by the addition of 13 μL of 10 mM sodiumarachidonate in 10% MeOH (final concentration of AA was 100 μM). The oxygen consumption was measured from the linear portion of the O2 uptake curve.

The target in assay [2] is T2, Holo Prostaglandin Endoperoxide Synthase (cyclooxygenase activity) (Ovis aries, UniProt P05979).
T2 construct: PGHS was purified from ram seminal vesicles; from tissue; host or cells: ram seminal vesicles
T2 sequence (P05979 25-600): T1 sequence (P05979 25-600)
The experiment in a line: Instantaneous inactivation of the cyclooxygenase activity of holo PGHS (oxygen consumption). Format: biochemical, ram (seminal vesicles). To be noted: for pIC50: enzyme 0.25 μM, oxygen consumption. The method, then: as §1, §2
The reaction mixture was allowed to reconstitute for 1 min and then varying inhibitor concentration were added to the reaction mixture. As quickly as possible, the cyclooxygenase reaction was initiated by the addition of 100 mM sodium arachidonate. […]

Assay [3] has as its system holo PGHS. Conditions: Ser 530 in sheep (Ser 529 in humans); cited from earlier work.
Assay [4] has as its target T3, holo PGHS (peroxidase activity) (Ovis aries, UniProt P05979).
T3 construct: PGHS was purified from ram seminal vesicles; from tissue; host or cells: ram seminal vesicles
T3 sequence (P05979 25-600): T1 sequence (P05979 25-600)
The experiment in a line: Instantaneous inactivation of peroxidase activity (guaiacol oxidation). It is filed as biochemical, ram (seminal vesicles). Conditions: for pIC50: enzyme 0.25 μM. As for the experimental part: as §1
Enzyme aliquots were added to 100 mM Tris HCl (pH 8) containing […] heme, 500 μM guaiacol in disposible cuvettes. Reaction was initiated by the addition of 400 μM H2 O2.
This reaction mixture was treated with a given concentration of the inhibitor and then as quickly as possible the peroxidase reaction was initiated by the addition of 0.4 mM H2 O2. The initial rates of oxidation were measured for 20 sec at a repeat rate of 1 second. (Table 4)

The target of assay [5] is T4, PGHS (cyclooxygenase activity) (Ovis aries, UniProt P05979).
T4 construct: PGHS was purified from ram seminal vesicles; from tissue; host or cells: ram seminal vesicles
T4 sequence (P05979 25-600): T1 sequence (P05979 25-600)
The experiment in a line: IC50 for inactivation of cyclooxygenase activity of PGHS after 30 min incubation. It is filed as biochemical, ram (seminal vesicles). The method, then:
as §1, §2
Varying inhibitor concentrations were incubated with reconstituted holo PGHS (final concentration in the oxygraph cell was 250 nM) at room temperature for 30 min. Aliquots of this incubation mixture were added to the oxygraph cell containing 100 mM Tris-HCl at pH 8 with 500 μm of phenol and 1 μM hematin. The reaction mixture was allowed to reconstitute for 1 min and the cyclooxygenase reaction was initiated by the addition of 100 mM sodium arachidonate. (Table 1)
In all experiments the enzyme concentrations was 0.25 μM.

The subject of assay [6] is PGHS (cyclooxygenase activity). The experiment in a line: Inactivation of cyclooxygenase activity of PGHS by cysteine specific reagents. Format: biochemical. An excerpt: (§3) Thiyl radicals (as reviewed in Shoeneich, 1992) can be potentially generated from cysteines present in PGHS, in the catabolism of arachidonic acid. […] Site-directed mutagenesis experiments to mutate these cysteines to serines and their corresponding effect on prostaglandin biosynthesis are presently being carried out.

The subject of assay [7] is holo PGHS. The experiment in a line: Inactivation of holo PGHS. It is filed as biochemical.
From the text: as §3

Assay [8] concerns PGHS (peroxidase activity). The experiment in a line: Inactivation of peroxidase activity of PGHS by cysteine specific reagents. It is filed as biochemical.
From the text: as §3

The next assay relates to mouse. To be noted: doses much below those required by indomethacin; cited from earlier work.
The subject of the next assay is guinea pigs. Conditions: doses much below those required by indomethacin; cited from earlier work.
In a further assay the test system is cyclooxygenase. Conditions: cited from earlier work.
Assay [9] concerns the target T5, cyclooxygenase activity of PGHS (Ovis aries, UniProt P05979).
T5 sequence (P05979 25-600): T1 sequence (P05979 25-600)
The experiment in a line: Inhibition of cyclooxygenase activity of PGHS by analog 2. Format: biochemical. An excerpt:
Preliminary structure-activity studies on compounds with structural similarity indicate the position of oxygen on the omega side chain and the stereochemistry on the oxobicycloheptane ring as the governing factors in the inhibition.
The basis for the inhibitory activity of a given NSAID depends on the interaction of the NSAID with the active site of the enzyme it inhibits. A working model for the active site of fatty acid cyclooxygenase with the pattern recognition of known inhibitors as well as conformational minimizations of the natural substrate AA has been constructed. The Squibb group recently described a novel series of 7-oxabicycloheptylpro stanoic acid derivatives that inhibit AA-induced platelet aggregation and AA oxygenation by platelet and bovine seminal microsomes. […]

The test system of the next assay is PGHS protein. The experiment in a line: Mechanistic studies: conformational change in the PGHS protein.
The conditions of assay [10]: cited from earlier work.
Setting [11] is: enzyme 0.25 μM, 30 min incubation with inhibitor, read-out: IC50 for inactivation of cyclooxygenase activity of PGHS.
The mark [12] stands for this setting: read-out: IC50 (aspirin analogs 44 and 45).

pIC50: −log10 of the molar value. Read-outs that look alike come from different tables or passages of the source.

Broadly, the pIC50 is the IC50 on a negative log10 scale, so that one unit is a factor of ten.

As for “2-[2-(N-Maleimidoethoxy)]benzoic acid [Compound 7]”, in assay [1] (inhibitor 16 μM), the “Oxygen Consumption, T = 0” value worked out at 180 µM/min and the “Oxygen Consumption, T = 30” value was 27 µM/min. For the same molecule, in assay [1] (inhibitor 16 μM, T = 60 (min)), the “Oxygen Consumption, T = 60 (symbol)” value was “--b”. In assay [2], this molecule had a pIC50 of 3.85.

`CC(=O)Oc1ccccc1C(=O)O` [Aspirin]: the “acylation of Ser 530 of PGHS” value in the assay on holo PGHS [3] is given as “inactivates the cyclooxygenase activity of holo PGHS by regioselective acylation of Ser 530”.

In the case of `O=C(O)CCCCCN1C(=O)C=CC1=O` [Compound 1, N-6-(Maleimido)hexanoic acid], in [1] (inhibitor 16 μM), the “Oxygen Consumption, T = 0” value came to 212 µM/min and the “Oxygen Consumption, T = 30” value was found to be 205 µM/min. In assay [1] (inhibitor 16 μM, T = 60 (min)), the “Oxygen Consumption, T = 60” value turned out to be 204 µM/min. Besides, the pIC50 in assay [2] is less than 3.10. Further, the pIC50 in assay [4] is less than 3.10.

In the case of `O=C(O)CCCCCCN1C(=O)C=CC1=O` [Compound 2, N-7-(Maleimido)heptanoic acid], in assay [1] (inhibitor 16 μM), the “Oxygen Consumption, T = 0” value amounted to 195 µM/min and the “Oxygen Consumption, T = 30” value stood at 142 µM/min. Moreover, the “Oxygen Consumption, T = 60” value in assay [1] (inhibitor 16 μM, T = 60 (min)) turned out to be 106 µM/min. Moreover, the pIC50 in [2] was 3.24. Also, the pIC50 in assay [4] is less than 3.10. Besides, in assay [4] (pH 8, at 800 μM), the remaining activity at 800 µM was 81%.

As for `O=C(O)CCCCCCCCN1C(=O)C=CC1=O` [Compound 4, 9-(Maleimido)-1-nonanoic acid], in [1] (inhibitor 10 μM), the “Oxygen Consumption, T = 0” value came out at 203 µM/min and the “Oxygen Consumption, T = 30” value turned out to be 121 µM/min. Moreover, the “Oxygen Consumption, T = 60” value in assay [1] (inhibitor 10 μM, T = 60 (min)) was 68 µM/min. This molecule also showed a pIC50 in assay [2] of 4.59.

Regarding `O=C(O)c1ccccc1OCCN1C(=O)C=CC1=O` [Compound 6 (Example 1), 2-[2-(N-Maleimidoethoxy)]benzoic acid], in assay [2], the “instantaneous inactivation of cyclooxygenase activity” value is on record as “failure”.

As for `CCCCCCCCN1C(=O)C=CC1=O` [Compound 8], the pIC50 in [5] (setting [11]) was 3.60.

`CCCCCCCCCN1C(=O)C=CC1=O` [Compound 9]: in assay [5] (setting [11]), the pIC50 was 4.30.

As to `CCCCCCCCCCN1C(=O)C=CC1=O` [Compound 10], the pIC50 in [5] (setting [11]) was 4.57.

For the molecule `Cc1ccccc1CN1C(=O)C=CC1=O` [Compound 11], in assay [5] (setting [11]), the pIC50 is 5.05.

As for `O=C(O)c1ccc(CN2C(=O)C=CC2=O)cc1` [Compound 12], in assay [5] (setting [11]), the pIC50 is 4.92.

As for `O=C(O)c1ccccc1OCCN1C(=O)C=CC1=O` [Compound 13], the pIC50 in [5] (setting [11]) is 4.40.

With `O=C(O)CCCCCCCN1C(=O)CCC1=O` [Compound 39, N-8-(Succinimido)octanoic acid], the “instantaneous inactivation of cyclooxygenase activity” value in assay [2] was “did not inactivate PGHS”; in [2] (listed as corresponding succinimide) it was “did not display any inactivation at analogous concentrations and at higher concentrations”. For the same molecule, the “inhibition of the enzyme at 500 fold excess” value in assay [2] (500 fold excess) is given as “did not inhibit the enzyme, even at a 500 fold excess”.

Take `CC(=O)Oc1cc(N2C(=O)C=CC2=O)ccc1C(=O)O` [Compound 44]: the “Inhibition of cyclooxygenase at 200 μM (footnote a, Table 2)” value in assay [5] (200 μM, 30 min incubation) is reported as “No significant inhibition observed”. The pIC50 in assay [5] (setting [12]) is less than 3.70.

Regarding `CC(=O)Oc1ccc(N2C(=O)C=CC2=O)cc1C(=O)O` [Compound 45], in assay [5] (setting [12]), the pIC50 is 4.54.

Consider `CC(=O)n1ccnc1` [N-acetylimidazole], for which, in the assay on holo PGHS [3], the “acylation of Ser 530 of PGHS” value was “did not result in regioselective acetylation”.

As to `CCN1C(=O)C=CC1=O` [NEM, N-ethylmaleimide], in assay [6], the “inactivation of cyclooxygenase activity by cysteine specific reagent” value is “time- and concentration-dependent inactivation”. In addition, in the assay on holo PGHS [7], the “inactivation of holo PGHS” value is listed as “inactivates holo”. Moreover, in [8], the “inactivation of peroxidase activity by cysteine specific reagent” value was “time- and concentration-dependent inactivation”.

With `CCCCCCOCC1C2CCC(O2)C1CC=CCCCC(=O)O` (centres unmarked) [analog 1], in the assay on mouse, the “prevention of AA-induced sudden death” value is recorded as “prevents AA-induced sudden death in the mouse”. In addition, the “prevention of AA-induced changes in lung mechanics” value with guinea pigs is reported as “AA-induced changes in lung mechanics in guinea pigs at doses much below those required for similar effects by indomethacin”. Further, the “inhibition of cyclooxygenase activity in vitro” value in the assay on cyclooxygenase is “inhibition of cyclooxygenase activity in vitro”.

As to `CCCCCCOCC1C2CCC(O2)C1CC=CCCC(C)(C)C(=O)O` (centres unmarked) [analog 2], the “time-dependent inhibition of cyclooxygenase activity” value in assay [9] is recorded as “potent time-dependent inhibitor”. Further, the pIC50 in [9] (enzyme concentration 140 nM) is 7.10. Further, the IC100 in assay [9] (enzyme concentration 140 nM, read-out: concentration with complete inhibition) was determined as 0.15 µM. Further, the “conformational change in the PGHS protein” value with PGHS protein was “induces a conformational change in the PGHS protein”. In addition, the “duration of action in vivo, relative to analog 1” value in assay [10] is on record as “longer duration of action in vivo”. The “inhibition of cyclooxygenase activity in vitro” value in the assay with cyclooxygenase was “displays the same activities as analog 1”.

Consider “N-11-(Maleimido)undecanoic acid [Compound 5]”, for which, in assay [1] (inhibitor 10 μM), the “Oxygen Consumption, T = 0” value is 207 µM/min and the “Oxygen Consumption, T = 30” value was 178 µM/min. Moreover, the “Oxygen Consumption, T = 60” value in assay [1] (inhibitor 10 μM, T = 60 (min)) came to 81 µM/min. Besides, in assay [2], the pIC50 is 4.43.

Values taken from patent publication US5475021A, “Compounds and compositions for inhibition of cyclooxygenase activity” (Vanderbilt University, priority 1993, dated 1995).
